Assay results: US12459922B2 (Gilead Sciences, Inc., priority 2022, dated 2025)

test system: endogenous cellular STAT1 (phosphorylated at Tyr701) in NCI-H1373 cells; experiment: Phospho-STAT1 (Tyr701) LANCE Ultra TR-FRET Detection Assay; format: cell-based; settings: Homo sapiens, NCI-H1373, 48 h, phospho-STAT1 (Tyr701) induction, read-out: NH1373 pSTAT1 EC50
Protocol: Phospho-STAT1 (Tyr701 LANCE Ultra TR-FRET Detection Assay
d. LANCE Ultra phospho-STAT1 (Tyr701) kits are designed for the detection of phosphorylated STAT1 in cell lysates using a simple, homogeneous LANCE Ultra sandwich assay (Cat. #TRF4028M). This assay is intended for assessing compound induction of endogenous levels of cellular STAT1 (phosphorylated at Tyr701) in NCI-H1373 cells. The NCI-H1373 cells are cultured in RPMI 1640 media containing 10% heat inactivated FBS, GlutaMAX, 1% Penicillin-Streptomycin. An Echo acoustic liquid handler is used to transfer 60 nanoliters of compound dilutions using the Echo Qualified, 384-well polypropylene microplate clear flat bottom source plates into a Greiner (#781080) cell culture microplate. NCI-H1373 cells are seeded into these compound-spotted culture plates at 30,000 cells/well in a 60 uL volume in growth media. The plates are incubated in a 5% CO2 humidified incubator at 37° C. for 48 hours. […] After spinning the plate down at 300 rpm for 1 min, the plate is read on an EnVision plate reader set up for Eu3+ Cryptate and fluorescence emission is measured at two different wavelengths (665 nm and 620 nm). The HTRF ratio is then calculated […] for each well to determine the amount of pSTAT1 in the cell lysate, and the data is then normalized to 10 uM GS-1154611 positive and DMSO negative controls.

Structure (SMILES)	EC50 [nM]
COc1cnc(-c2cc3ccn(CCC[C@H](C)Nc4cn[nH]c(=O)c4C(F)(F)F)c(=O)c3cc2F)nc1N [Example 102, 6-(4-amino-5-methoxy-pyrimidin-2-yl)-7-fluoro-2-[(4S)-4-[[6-oxo-5-(trifluoromethyl)-1H-pyridazin-4-yl]amino]pentyl]isoquinolin-1-one]	8.23
C[C@@H](CCCn1ccc2cc(-c3ncc(F)c(N)n3)c(F)cc2c1=O)Nc1cn[nH]c(=O)c1C(F)(F)F [Example 103, 6-(4-amino-5-fluoro-pyrimidin-2-yl)-7-fluoro-2-[(4S)-4-[[6-oxo-5-(trifluoromethyl)-1H-pyridazin-4-yl]amino]pentyl]isoquinolin-1-one]	39.8
C[C@@H](CCCn1ccc2cc(-c3nc(N)ncc3C(F)F)c(F)cc2c1=O)Nc1cn[nH]c(=O)c1C(F)(F)F [Example 105, 6-[2-amino-5-(difluoromethyl)pyrimidin-4-yl]-7-fluoro-2-[(4S)-4-[[6-oxo-5-(trifluoromethyl)-1H-pyridazin-4-yl]amino]pentyl]isoquinolin-1-one]	465
C[C@@H](CCCn1cnc2cc(-c3ncc(C(F)F)c(N)n3)c(F)cc2c1=O)Nc1cn[nH]c(=O)c1C(F)(F)F [Example 108, 7-[4-amino-5-(difluoromethyl)pyrimidin-2-yl]-6-fluoro-3-[(4S)-4-[[6-oxo-5-(trifluoromethyl)-1H-pyridazin-4-yl]amino]pentyl]quinazolin-4-one]	29.4
COc1cnc(-c2cc3ccn(CCC[C@H](C)Nc4cn[nH]c(=O)c4C(F)(F)F)c(=O)c3c(F)c2F)nc1N [Example 109, 6-(4-amino-5-methoxy-pyrimidin-2-yl)-7,8-difluoro-2-[(4S)-4-[[6-oxo-5-(trifluoromethyl)-1H-pyridazin-4-yl]amino]pentyl]isoquinolin-1-one]	8.59
C[C@@H](CCCn1ccc2cc(-c3ncc(C#N)c(N)n3)c(F)c(F)c2c1=O)Nc1cn[nH]c(=O)c1C(F)(F)F [Example 110, 4-amino-2-[7,8-difluoro-1-oxo-2-[(4S)-4-[[6-oxo-5-(trifluoromethyl)-1H-pyridazin-4-yl]amino]pentyl]-6-isoquinolyl]pyrimidine-5-carbonitrile]	13.4
C[C@@H](CCCn1ccc2cc(-c3ncc([N+](=O)[O-])c(N)n3)c(F)cc2c1=O)Nc1cn[nH]c(=O)c1C(F)(F)F [Example 111, 6-(4-amino-5-nitro-pyrimidin-2-yl)-7-fluoro-2-[(4S)-4-[[6-oxo-5-(trifluoromethyl)-1H-pyridazin-4-yl]amino]pentyl]isoquinolin-1-one]	6.67
C[C@@H](CCCn1ccc2cc(-c3ncc(C(F)F)c(N)n3)c(F)c(F)c2c1=O)Nc1cn[nH]c(=O)c1C(F)(F)F [Example 113, 6-[4-amino-5-(difluoromethyl)pyrimidin-2-yl]-7,8-difluoro-2-[(4S)-4-[[6-oxo-5-(trifluoromethyl)-1H-pyridazin-4-yl]amino]pentyl]isoquinolin-1-one]	6.93
C[C@@H](CCCn1ccc2cc(-c3nc(N)ncc3C(F)F)c(F)c(F)c2c1=O)Nc1cn[nH]c(=O)c1C(F)(F)F [Example 114, 6-[2-amino-5-(difluoromethyl)pyrimidin-4-yl]-7,8-difluoro-2-[(4S)-4-[[6-oxo-5-(trifluoromethyl)-1H-pyridazin-4-yl]amino]pentyl]isoquinolin-1-one]	852
C[C@@H](CCCn1cnc2cc(-c3ncc(C(F)(F)F)c(NC4CC4)n3)c(F)cc2c1=O)Nc1cn[nH]c(=O)c1C(F)(F)F [Example 116, 7-[4-(cyclopropylamino)-5-(trifluoromethyl)pyrimidin-2-yl]-6-fluoro-3-[(4S)-4-[[6-oxo-5-(trifluoromethyl)-1H-pyridazin-4-yl]amino]pentyl]quinazolin-4-one]	6.7
C[C@@H](CCCn1ccc2cc(-c3ncc4c(n3)NCCO4)c(F)cc2c1=O)Nc1cn[nH]c(=O)c1C(F)(F)F [Example 118, 6-(7,8-dihydro-6H-pyrimido[5,4-b] [1,4]oxazin-2-yl)-7-fluoro-2-[(4S)-4-[[6-oxo-5-(trifluoromethyl)-1H-pyridazin-4-yl]amino]pentyl]isoquinolin-1-one]	9.84
O=c1[nH]ncc(N2CCC[C@H]2CCCn2ccc3cc(-c4ncc(C(F)(F)F)cn4)c(F)cc3c2=O)c1C(F)(F)F [Example 120, (S)-7-fluoro-2-(3-(1-(6-oxo-5-(trifluoromethyl)-1,6-dihydropyridazin-4-yl)pyrrolidin-2-yl)propyl)-6-(5-(trifluoromethyl)pyrimidin-2-yl)isoquinolin-1(2H)-one]	9.73
COc1cnc(-c2cc3ccn(CCC[C@@H]4CCCN4c4cn[nH]c(=O)c4C(F)(F)F)c(=O)c3cc2F)nc1N [Example 122, (S)-6-(4-amino-5-methoxypyrimidin-2-yl)-7-fluoro-2-(3-(1-(6-oxo-5-(trifluoromethyl)-1,6-dihydropyridazin-4-yl)pyrrolidin-2-yl)propyl)isoquinolin-1(2H)-one]	8.04
C[C@@H](CCCn1cnc2cc(-c3ncc(C(F)(F)F)c(N4CC(O)C4)n3)c(F)cc2c1=O)Nc1cn[nH]c(=O)c1C(F)(F)F [Example 124, (S)-6-fluoro-7-(4-(3-hydroxyazetidin-1-yl)-5-(trifluoromethyl)pyrimidin-2-yl)-3-(4-((6-oxo-5-(trifluoromethyl)-1,6-dihydropyridazin-4-yl)amino)pentyl)quinazolin-4(3H)-one]	11.4
C[C@@H](CCCn1cnc2cc(-c3ncc(C#N)c(N)n3)c(F)cc2c1=O)Nc1cn[nH]c(=O)c1C(F)(F)F [Example 125, (S)-4-amino-2-(6-fluoro-4-oxo-3-(4-((6-oxo-5-(trifluoromethyl)-1,6-dihydropyridazin-4-yl)amino)pentyl)-3,4-dihydroquinazolin-7-yl)pyrimidine-5-carbonitrile]	84.8

These reach a lower EC50. Values come first.

EC50 [nM]	Structure (SMILES)
6.29	Nc1nc(-c2cc3ccn(CC[C@H]4CC[C@@H]4Nc4cn[nH]c(=O)c4C(F)(F)F)c(=O)c3cc2F)ncc1C(F)(F)F [Example 123, 6-(4-amino-5-(trifluoromethyl)pyrimidin-2-yl)-7-fluoro-2-(2-((1R,2S)-2-((6-oxo-5-(trifluoromethyl)-1,6-dihydropyridazin-4-yl)amino)cyclobutyl)ethyl)isoquinolin-1(2H)-one]
5.21	CCNc1nc(-c2cc3ncn(CCC[C@H](C)Nc4cn[nH]c(=O)c4C(F)(F)F)c(=O)c3cc2F)ncc1C(F)(F)F [Example 117, 7-[4-(ethylamino)-5-(trifluoromethyl)pyrimidin-2-yl]-6-fluoro-3-[(4S)-4-[[6-oxo-5-(trifluoromethyl)-1H-pyridazin-4-yl]amino]pentyl]quinazolin-4-one]
5.16	Nc1nc(-c2cc3ccn(CCC[C@@H]4CCCN4c4cn[nH]c(=O)c4C(F)(F)F)c(=O)c3cc2F)ncc1C(F)(F)F [Example 121, (S)-6-(4-amino-5-(trifluoromethyl)pyrimidin-2-yl)-7-fluoro-2-(3-(1-(6-oxo-5-(trifluoromethyl)-1,6-dihydropyridazin-4-yl)pyrrolidin-2-yl)propyl)isoquinolin-1(2H)-one]
3.42	CNc1nc(-c2cc3ncn(CCC[C@H](C)Nc4cn[nH]c(=O)c4C(F)(F)F)c(=O)c3cc2F)ncc1C(F)(F)F [Example 115, 6-fluoro-7-[4-(methylamino)-5-(trifluoromethyl)pyrimidin-2-yl]-3-[(4S)-4-[[6-oxo-5-(trifluoromethyl)-1H-pyridazin-4-yl]amino]pentyl]quinazolin-4-one]
3.36	C[C@@H](CCCn1ccc2cc(-c3ncc(C(F)(F)F)c(N4CC(C#N)C4)n3)c(F)cc2c1=O)Nc1cn[nH]c(=O)c1C(F)(F)F [Example 119, (S)-1-(2-(7-fluoro-1-oxo-2-(4-((6-oxo-5-(trifluoromethyl)-1,6-dihydropyridazin-4-yl)amino)pentyl)-1,2-dihydroisoquinolin-6-yl)-5-(trifluoromethyl)pyrimidin-4-yl)azetidine-3-carbonitrile]
2.31	CNc1nc(-c2cc3ccn(CCC[C@H](C)Nc4cn[nH]c(=O)c4C(F)(F)F)c(=O)c3cc2F)ncc1C(F)(F)F [Example 106, 7-fluoro-6-[4-(methylamino)-5-(trifluoromethyl)pyrimidin-2-yl]-2-[(4S)-4-[[6-oxo-5-(trifluoromethyl)-1H-pyridazin-4-yl]amino]pentyl]isoquinolin-1-one]
2.22	C[C@@H](CCCn1ccc2cc(-c3ncc(C4CC4)c(N)n3)c(F)cc2c1=O)Nc1cn[nH]c(=O)c1C(F)(F)F [Example 107, 6-(4-amino-5-cyclopropyl-pyrimidin-2-yl)-7-fluoro-2-[(4S)-4-[[6-oxo-5-(trifluoromethyl)-1H-pyridazin-4-yl]amino]pentyl]isoquinolin-1-one]
2.07	C[C@@H](CCCn1ccc2cc(-c3ncc4c(n3)NCC4(C)C)c(F)cc2c1=O)Nc1cn[nH]c(=O)c1C(F)(F)F [Example 112, 6-(5,5-dimethyl-6,7-dihydropyrrolo[2,3-d]pyrimidin-2-yl)-7-fluoro-2-[(4S)-4-[[6-oxo-5-(trifluoromethyl)-1H-pyridazin-4-yl]amino]pentyl]isoquinolin-1-one]
